# ChEMBL document CHEMBL4330140, “Novel human adenosine receptor antagonists based on the 7-amino-thiazolo[5,4-d]pyrimidine scaffold. Structural investigations at the 2-, 5- and 7-positions to enhance affinity and tune selectivity” (Bioorg Med Chem Lett, 2019)
# How the values were obtained:
# [1] = target: T1, Adenosine receptor A1 (Homo sapiens, UniProt P30542); assay: Displacement of [3H]CCPA from human adenosine A1 receptor expressed in CHO cells after 3 hrs by scintillation counting method; assay type: cell-based
# T1 sequence (P30542 whole entry): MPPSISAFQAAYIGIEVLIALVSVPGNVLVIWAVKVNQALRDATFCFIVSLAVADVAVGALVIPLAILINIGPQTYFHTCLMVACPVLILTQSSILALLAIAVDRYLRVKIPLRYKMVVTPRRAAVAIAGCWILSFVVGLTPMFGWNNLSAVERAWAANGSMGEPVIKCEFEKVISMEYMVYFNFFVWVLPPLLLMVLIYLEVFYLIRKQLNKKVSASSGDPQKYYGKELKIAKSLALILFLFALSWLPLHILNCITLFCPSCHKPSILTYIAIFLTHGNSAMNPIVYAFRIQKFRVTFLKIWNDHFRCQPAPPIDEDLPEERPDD
# [2] = target: T2, Adenosine receptor A2a (Homo sapiens, UniProt P29274); assay: Displacement of [3H]NECA from human adenosine A2A receptor expressed in CHO cells after 3 hrs by scintillation counting method; assay type: cell-based
# T2 sequence (P29274 whole entry): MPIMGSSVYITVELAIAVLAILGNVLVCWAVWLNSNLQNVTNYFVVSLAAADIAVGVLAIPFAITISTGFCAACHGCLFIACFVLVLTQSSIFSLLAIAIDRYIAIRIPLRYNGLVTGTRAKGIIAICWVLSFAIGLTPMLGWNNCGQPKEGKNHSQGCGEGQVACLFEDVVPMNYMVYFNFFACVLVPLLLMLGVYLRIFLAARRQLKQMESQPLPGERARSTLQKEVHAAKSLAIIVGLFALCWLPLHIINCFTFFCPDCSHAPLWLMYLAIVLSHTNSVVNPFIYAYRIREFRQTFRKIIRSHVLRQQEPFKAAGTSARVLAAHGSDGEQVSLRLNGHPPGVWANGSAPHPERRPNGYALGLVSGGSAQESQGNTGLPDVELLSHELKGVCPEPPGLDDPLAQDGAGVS
# [3] = target: T3, Adenosine receptor A3 (Homo sapiens, UniProt P0DMS8); assay: Displacement of [3H]HEMADO from human adenosine A3 receptor expressed in CHO cells after 3 hrs by scintillation counting method; assay type: cell-based
# T3 sequence (P0DMS8 whole entry): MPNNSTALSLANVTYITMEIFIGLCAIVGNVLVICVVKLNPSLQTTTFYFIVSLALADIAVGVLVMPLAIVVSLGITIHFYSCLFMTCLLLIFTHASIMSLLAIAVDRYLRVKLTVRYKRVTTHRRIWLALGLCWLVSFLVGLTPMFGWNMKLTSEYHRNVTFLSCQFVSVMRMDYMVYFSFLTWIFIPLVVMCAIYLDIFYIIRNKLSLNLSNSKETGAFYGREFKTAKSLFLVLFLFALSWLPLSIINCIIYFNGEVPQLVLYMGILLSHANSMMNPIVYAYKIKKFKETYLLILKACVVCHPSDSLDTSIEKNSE
# [4] = target: T4, Adenosine receptor A2b (Homo sapiens, UniProt P29275); assay: Antagonist activity at human adenosine A2B receptor expressed in CHO cells assessed as inhibition of NECA-induced increase in cAMP accumulation preincubated for 10 mins followed by NECA addition by GloSensor cAMP assay; assay type: functional, cell-based
# T4 sequence (P29275 whole entry): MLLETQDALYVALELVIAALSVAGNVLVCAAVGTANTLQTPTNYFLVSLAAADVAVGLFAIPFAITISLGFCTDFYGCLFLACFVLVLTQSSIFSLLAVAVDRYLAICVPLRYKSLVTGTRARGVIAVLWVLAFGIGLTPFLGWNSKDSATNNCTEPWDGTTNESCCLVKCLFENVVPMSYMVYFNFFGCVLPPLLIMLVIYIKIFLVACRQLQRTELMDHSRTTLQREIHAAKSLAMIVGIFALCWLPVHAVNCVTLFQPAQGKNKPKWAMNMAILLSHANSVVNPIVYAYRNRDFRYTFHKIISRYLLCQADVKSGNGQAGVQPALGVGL
# [5] = target: Adenosine receptors; A1 & A3 (Homo sapiens) (UniProt P30542+P0DMS8); assay: Selectivity ratio of Ki for displacement of [3H]CCPA from human adenosine A1 receptor expressed in CHO cells to Ki for displacement of [3H]HEMADO from human adenosine A3 receptor expressed in CHO cells; assay type: cell-based
# [6] = species: Homo sapiens; assay: Selectivity ratio of Ki for [3H]NECA from human adenosine A2A receptor expressed in CHO cells to Ki for displacement of [3H]HEMADO from human adenosine A3 receptor expressed in CHO cells; assay type: cell-based
# [7] = species: Homo sapiens; assay: Selectivity ratio of Ki for displacement of [3H]CCPA from human adenosine A1 receptor expressed in CHO cells to Ki for displacement of [3H]NECA from human adenosine A2A receptor expressed in CHO cells; assay type: cell-based
# [8] = species: Homo sapiens; assay: Selectivity ratio of Ki for displacement of [3H]HEMADO from human adenosine A3 receptor expressed in CHO cells to Ki for displacement of [3H]NECA from human adenosine A2A receptor expressed in CHO cells; assay type: cell-based
# [9] = target: T2, Adenosine receptor A2a; assay: Antagonist activity at human adenosine A2A receptor expressed in CHO cells assessed as inhibition of NECA-induced increase in cAMP accumulation preincubated for 10 mins followed by NECA addition by GloSensor cAMP assay; assay type: functional, cell-based
SMILES,Ki [1] [nM],Ki [2] [nM],Ki [3] [nM],IC50 [4] [nM],Ratio Ki [5],Ratio Ki [6],Ratio Ki [7],Ratio Ki [8],IC50 [9] [nM]
O=C(Nc1nc(-c2ccccc2)nc2sc(-c3ccccc3)nc12)c1ccco1,2280,3980,48,> 30000,47.4,83,,,
Cc1nc(NC(=O)c2ccccc2)c2nc(-c3ccccc3)sc2n1,935,1950,691,> 30000,1.3,2.8,,,
COc1ccc(-c2nc(N)c3nc(-c4ccccc4)sc3n2)cc1,225,115,46.7,> 30000,,,1.9,0.4,
Cc1ccc(-c2nc(N)c3nc(-c4ccco4)sc3n2)o1,45.9,2.36,13.8,> 30000,,,19.4,5.8,
COc1ccc(-c2nc(N)c3nc(-c4ccco4)sc3n2)cc1,47.7,11.2,4.66,> 30000,,,4.2,0.4,
Nc1nc(-c2cccc(CO)c2)nc2sc(-c3ccccc3)nc12,32,53,3.7,> 30000,,,0.6,0.07,
Nc1nc(-c2cccc(O)c2)nc2sc(-c3ccco3)nc12,51,1.64,15.7,> 30000,,,31.1,9.6,764
Nc1nc(-c2ccc(CO)cc2)nc2sc(-c3ccccc3)nc12,82,82,8.2,> 30000,,,1,0.1,
Nc1nc(-c2ccc(CO)cc2)nc2sc(-c3ccco3)nc12,77.7,7.7,3.58,> 30000,,,10.1,0.5,
Nc1nc(-c2cccc(O)c2)nc2sc(-c3ccccc3)nc12,58.5,5,190,> 30000,,,11.7,38,627
Nc1nc(-c2ccco2)nc2sc(-c3ccccc3)nc12,67,1.7,2.8,> 30000,,,39.4,1.6,163
Cc1nc(N)c2nc(-c3ccccc3)sc2n1,34,248,2660,> 30000,0.01,0.09,0.14,10.7,
COc1cccc(-c2nc(N)c3nc(-c4ccccc4)sc3n2)c1,176,110,35.6,> 30000,,,1.6,0.3,
Nc1nc(-c2ccccc2)nc2sc(-c3ccccc3)nc12,148,19,84,> 30000,1.76,0.22,7.8,4.4,
N#Cc1cccc(-c2nc(N)c3nc(-c4ccco4)sc3n2)c1,103,7.7,61.5,> 30000,,,13.3,8,
Cc1ccc(-c2nc(N)c3nc(-c4ccccc4)sc3n2)o1,28.9,22.4,24.9,> 30000,,,1.3,1.1,
Nc1nc(-c2cccc(CO)c2)nc2sc(-c3ccco3)nc12,28,2.1,0.9,> 30000,,,13,0.4,
COc1cccc(-c2nc(N)c3nc(-c4ccco4)sc3n2)c1,62.3,1.9,4.9,> 30000,,,32.8,2.6,
O=C(Nc1nc(-c2ccccc2)nc2sc(-c3ccco3)nc12)c1ccccc1,> 30000,1140,32,> 30000,> 900,35.7,,,
Nc1nc(-c2ccccc2)nc2sc(-c3ccco3)nc12,33,3,15,> 30000,2.2,0.2,11,5,
Cc1nc(NC(=O)c2ccc(Cl)cc2)c2nc(-c3ccccc3)sc2n1,> 30000,> 30000,> 30000,> 30000,,,,,
N#Cc1cccc(-c2nc(N)c3nc(-c4ccccc4)sc3n2)c1,594,33.6,247,> 30000,,,17.7,7.3,
O=C(Nc1nc(-c2ccccc2)nc2sc(-c3ccco3)nc12)c1ccco1,265,428,4,> 30000,66.2,107,,,
O=C(Nc1nc(-c2ccccc2)nc2sc(-c3ccccc3)nc12)c1ccccc1,1470,104,1200,> 30000,1.2,0.08,,,
COc1ccc(C(=O)Nc2nc(C)nc3sc(-c4ccccc4)nc23)cc1,1460,> 30000,91,> 30000,16,> 300,,,
